In paper PMC8991199, “Promiscuity mapping of the S100 protein family using a high-throughput holdup assay” (Scientific Reports, 2022):

Key:
Format in all cases: binding
S100A12 = molecular target: T1, S100A12 (Homo sapiens, UniProt P80511); assay: direct fluorescence polarization (FP), S100A12; details: S100A12, 50 nM labeled foldamer, 20 mM HEPES pH 7.5, 150 mM NaCl, 1 mM CaCl2, 0.5 mM TCEP, 0.01% Tween20, quadratic fit, mean ± SEM, three technical repeats, threshold 1 mM
T1 sequence (P80511 1-92): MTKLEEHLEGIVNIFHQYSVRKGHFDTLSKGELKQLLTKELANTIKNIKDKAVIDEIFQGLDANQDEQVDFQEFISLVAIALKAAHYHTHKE
Experimental: (§1) HTP (and also low-throughput) measurements generally need to be validated by an orthogonal approach to eliminate experimental artifacts. […] This way, we chose WL, IF, WW, YF, IL, VL, TW, RF, RR, TI, TM, and after resynthesizing with a fluorescent label at the C-terminus (Figs. S15–S26, Table S1), the S100ome was tested against the labeled foldamers by direct fluorescence polarization (FP) (Fig. 3A). In this assay, the association of the fluorescently labeled foldamer and the S100 protein of interest is monitored, through the change in polarization of the emitted light by the fluorophore upon the binding event. In direct FP, the presence of the fluorophore might change the binding affinity of some foldamers. […] Nevertheless, we assumed that the fluorophore would affect all foldamers that target the same binding site to the same degree, because the foldamer scaffold is rigid. Defining the threshold of detection at the dissociation constant of 1 mM, we identified 87 interactions between the selected foldamer fragments and the S100ome out of 220 possible interactions (Table 1, Fig. S4-14).
(§2) Briefly, S100 proteins were cloned into a modified pET15b vector with a TEV protease cleavable N-terminal His6-tag and expressed in Escherichia coli BL21 (DE3) cells, followed by Ni^2+-affinity chromatography. For HU assay, S100 proteins were further purified by either hydrophobic interaction chromatography or ion exchange chromatography without the cleavage of the N-terminal His6-tag applying standard conditions. For direct FP measurements, the N-terminal His6-tag was cleaved, and the S100 proteins were purified by hydrophobic interaction chromatography, ion exchange chromatography or size exclusion chromatography. The quality of the recombinant proteins was checked by SDS-PAGE analysis in all cases. The concentration of the recombinant S100 proteins was determined by UV spectrophotometry using the absorbance of Tyr and Trp residues.
(§3) In direct fluorescence polarization assays, S100 proteins were diluted in a buffer containing 50 nM labeled foldamer, 20 mM HEPES pH 7.5, 150 mM NaCl, 1 mM CaCl2, 0.5 mM TCEP and 0.01% Tween20. The dilution series (50 µl) were divided into three technical repeats and transferred (15 µl) to a 384-well microplate. In competitive fluorescence polarization assays, the buffer applied in direct measurements was supplemented with the S100 protein of interest to reach a saturation of 60–80%. This mixture was titrated with the competitor (i.e. the unlabeled peptide). Fluorescence polarization was measured in 8 different S100 concentrations (one of which contained no S100 protein) on a Synergy H4 plate reader using 485 ± 20 nm and 528 ± 20 nm band-pass filters for excitation and emission, respectively. The Kd values were obtained by fitting the data from the FP measurements with the python-based ProFit software using quadratic and competitive binding equation for direct and competitive FP, respectively. The detection threshold was based on two parameters. First, we rejected all fitted dissociation constants above 1 mM.

S100A11 = molecular target: T2, S100A11 (Homo sapiens, UniProt P31949); assay: direct fluorescence polarization (FP), S100A11; details: S100A11, 50 nM labeled foldamer, 20 mM HEPES pH 7.5, 150 mM NaCl, 1 mM CaCl2, 0.5 mM TCEP, 0.01% Tween20, quadratic fit, mean ± SEM, three technical repeats, threshold 1 mM
T2 sequence (P31949 1-105): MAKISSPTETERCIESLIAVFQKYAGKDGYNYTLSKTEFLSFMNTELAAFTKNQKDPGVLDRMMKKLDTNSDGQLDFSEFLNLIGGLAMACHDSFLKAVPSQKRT
Experimental: as §1, §2, §3

S100A7 = molecular target: T3, S100A7 (Homo sapiens, UniProt P31151); assay: direct fluorescence polarization (FP), S100A7; details: S100A7, 50 nM labeled foldamer, 20 mM HEPES pH 7.5, 150 mM NaCl, 1 mM CaCl2, 0.5 mM TCEP, 0.01% Tween20, quadratic fit, mean ± SEM, three technical repeats, threshold 1 mM
T3 sequence (P31151 1-101): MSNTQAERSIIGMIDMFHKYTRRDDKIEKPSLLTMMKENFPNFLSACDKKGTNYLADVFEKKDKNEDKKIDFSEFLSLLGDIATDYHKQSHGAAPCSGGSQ
Experimental: as §1, §2, §3

S100A1 = molecular target: T4, S100A1 (Homo sapiens, UniProt P23297); assay: direct fluorescence polarization (FP), S100A1; details: S100A1, 50 nM labeled foldamer, 20 mM HEPES pH 7.5, 150 mM NaCl, 1 mM CaCl2, 0.5 mM TCEP, 0.01% Tween20, quadratic fit, mean ± SEM, three technical repeats, threshold 1 mM
T4 sequence (P23297 1-94): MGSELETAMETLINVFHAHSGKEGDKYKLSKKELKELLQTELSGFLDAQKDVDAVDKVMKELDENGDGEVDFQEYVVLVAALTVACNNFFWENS
From the text: (§4) HTP (and also low-throughput) measurements generally need to be validated by an orthogonal approach to eliminate experimental artifacts. […] In this assay, the association of the fluorescently labeled foldamer and the S100 protein of interest is monitored, through the change in polarization of the emitted light by the fluorophore upon the binding event. In direct FP, the presence of the fluorophore might change the binding affinity of some foldamers. […] Nevertheless, we assumed that the fluorophore would affect all foldamers that target the same binding site to the same degree, because the foldamer scaffold is rigid.
as §2, §3

S100Z = molecular target: T5, S100Z (Homo sapiens, UniProt Q8WXG8); assay: direct fluorescence polarization (FP), S100Z; details: 50 nM labeled foldamer, 20 mM HEPES pH 7.5, 150 mM NaCl, 1 mM CaCl2, 0.5 mM TCEP, 0.01% Tween20, quadratic fit, mean ± SEM, three technical repeats, threshold 1 mM
T5 sequence (Q8WXG8 1-99): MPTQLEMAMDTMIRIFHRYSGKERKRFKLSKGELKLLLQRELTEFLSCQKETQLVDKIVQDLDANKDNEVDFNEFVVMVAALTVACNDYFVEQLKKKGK
From the text: as §4, §2, §3

S100A9 = molecular target: T6, S100A9 (Homo sapiens, UniProt P06702); assay: direct fluorescence polarization (FP), S100A9; details: S100A9, 50 nM labeled foldamer, 20 mM HEPES pH 7.5, 150 mM NaCl, 1 mM CaCl2, 0.5 mM TCEP, 0.01% Tween20, quadratic fit, mean ± SEM, three technical repeats, threshold 1 mM
T6 sequence (P06702 1-114): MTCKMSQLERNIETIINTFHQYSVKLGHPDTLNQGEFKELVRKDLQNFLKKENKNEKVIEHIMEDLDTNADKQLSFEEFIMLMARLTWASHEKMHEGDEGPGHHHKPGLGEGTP
Experimental: as §1, §2, §3

Structure (SMILES) | Kd (S100A12) [µM] | Kd (S100A11) [µM] | Kd (S100A7) [µM] | Kd (S100A1) [µM] | Kd (S100Z) [µM] | Kd (S100A9) [µM]
CC(C)C[C@@H](CC(=O)N[C@H]1CCCC[C@@H]1C(=O)NCC(=O)N[C@@H](CCCCNC(=O)c1ccc2c(c1)C1(OC2=O)c2ccc(O)cc2Oc2cc(O)ccc21)C(N)=O)NC(=O)[C@H]1CCCC[C@@H]1NC(=O)[C@H]1CCCC[C@@H]1NC(=O)C[C@H](Cc1c[nH]c2ccccc12)NC(=O)[C@H]1CCCC[C@@H]1N [fWL] | 254 ± 113 | > 1000 | 23 ± 1.5 | 53 ± 5.2 | > 1000 | > 1000
N=C(N)NCCC[C@@H](CC(=O)N[C@H]1CCCC[C@@H]1C(=O)N[C@H]1CCCC[C@@H]1C(=O)N[C@H](CC(=O)N[C@H]1CCCC[C@@H]1C(=O)NCC(=O)N[C@@H](CCCCNC(=O)c1ccc2c(c1)C1(OC2=O)c2ccc(O)cc2Oc2cc(O)ccc21)C(N)=O)Cc1ccccc1)NC(=O)[C@H]1CCCC[C@@H]1N [fRF] | > 1000 | 998 ± 217 | > 1000 | 413 ± 81 | 890 ± 120 | > 1000
NC(=O)[C@H](CCCCNC(=O)c1ccc2c(c1)C1(OC2=O)c2ccc(O)cc2Oc2cc(O)ccc21)NC(=O)CNC(=O)[C@H]1CCCC[C@@H]1NC(=O)C[C@H](Cc1c[nH]c2ccccc12)NC(=O)[C@H]1CCCC[C@@H]1NC(=O)[C@H]1CCCC[C@@H]1NC(=O)C[C@H](Cc1c[nH]c2ccccc12)NC(=O)[C@H]1CCCC[C@@H]1N [fWW] | > 1000 | > 1000 | > 1000 | 110 ± 19 | > 1000 | > 1000
CC[C@H](C)[C@@H](CC(=O)N[C@H]1CCCC[C@@H]1C(=O)N[C@H]1CCCC[C@@H]1C(=O)N[C@H](CC(=O)N[C@H]1CCCC[C@@H]1C(=O)NCC(=O)N[C@@H](CCCCNC(=O)c1ccc2c(c1)C1(OC2=O)c2ccc(O)cc2Oc2cc(O)ccc21)C(N)=O)Cc1ccccc1)NC(=O)[C@H]1CCCC[C@@H]1N [fIF] | 590 ± 39 | 280 ± 15 | > 1000 | 210 ± 13 | 480 ± 31 | > 1000
C[C@@H](O)[C@@H](CC(=O)N[C@H]1CCCC[C@@H]1C(=O)N[C@H]1CCCC[C@@H]1C(=O)N[C@H](CC(=O)N[C@H]1CCCC[C@@H]1C(=O)NCC(=O)N[C@@H](CCCCNC(=O)c1ccc2c(c1)C1(OC2=O)c2ccc(O)cc2Oc2cc(O)ccc21)C(N)=O)Cc1c[nH]c2ccccc12)NC(=O)[C@H]1CCCC[C@@H]1N [fTW] | > 1000 | 570 ± 68 | > 1000 | 330 ± 20 |  | > 1000
NC(=O)[C@H](CCCCNC(=O)c1ccc2c(c1)C1(OC2=O)c2ccc(O)cc2Oc2cc(O)ccc21)NC(=O)CNC(=O)[C@H]1CCCC[C@@H]1NC(=O)C[C@H](Cc1ccccc1)NC(=O)[C@H]1CCCC[C@@H]1NC(=O)[C@H]1CCCC[C@@H]1NC(=O)C[C@H](Cc1ccc(O)cc1)NC(=O)[C@H]1CCCC[C@@H]1N [fYF] | > 1000 | > 1000 | > 1000 | 110 ± 9.8 | > 1000 | > 1000
N=C(N)NCCC[C@@H](CC(=O)N[C@H]1CCCC[C@@H]1C(=O)NCC(=O)N[C@@H](CCCCNC(=O)c1ccc2c(c1)C1(OC2=O)c2ccc(O)cc2Oc2cc(O)ccc21)C(N)=O)NC(=O)[C@H]1CCCC[C@@H]1NC(=O)[C@H]1CCCC[C@@H]1NC(=O)C[C@H](CCCNC(=N)N)NC(=O)[C@H]1CCCC[C@@H]1N [fRR] | > 1000 | > 1000 | > 1000 | 280 ± 38 | > 1000 | > 1000

The next lines start with the values.

Kd (S100A12) [µM] | Kd (S100A11) [µM] | Kd (S100A7) [µM] | Kd (S100A1) [µM] | Kd (S100Z) [µM] | Kd (S100A9) [µM] | Structure (SMILES)
> 1000 | > 1000 | > 1000 | > 1000 | > 1000 | > 1000 | CC[C@H](C)[C@@H](CC(=O)N[C@H]1CCCC[C@@H]1C(=O)NCC(=O)N[C@@H](CCCCNC(=O)c1ccc2c(c1)C1(OC2=O)c2ccc(O)cc2Oc2cc(O)ccc21)C(N)=O)NC(=O)[C@H]1CCCC[C@@H]1NC(=O)[C@H]1CCCC[C@@H]1NC(=O)C[C@@H](NC(=O)[C@H]1CCCC[C@@H]1N)[C@@H](C)O [fTI]
> 1000 | > 1000 | > 1000 | > 1000 | > 1000 | > 1000 | CSCC[C@@H](CC(=O)N[C@H]1CCCC[C@@H]1C(=O)NCC(=O)N[C@@H](CCCCNC(=O)c1ccc2c(c1)C1(OC2=O)c2ccc(O)cc2Oc2cc(O)ccc21)C(N)=O)NC(=O)[C@H]1CCCC[C@@H]1NC(=O)[C@H]1CCCC[C@@H]1NC(=O)C[C@@H](NC(=O)[C@H]1CCCC[C@@H]1N)[C@@H](C)O [fTM]
> 1000 | > 1000 | > 1000 |  | > 1000 | > 1000 | CC[C@H](C)[C@@H](CC(=O)N[C@H]1CCCC[C@@H]1C(=O)N[C@H]1CCCC[C@@H]1C(=O)N[C@H](CC(=O)N[C@H]1CCCC[C@@H]1C(=O)NCC(=O)N[C@@H](CCCCNC(=O)c1ccc2c(c1)C1(OC2=O)c2ccc(O)cc2Oc2cc(O)ccc21)C(N)=O)CC(C)C)NC(=O)[C@H]1CCCC[C@@H]1N [fIL]
> 1000 | > 1000 | > 1000 | 97 ± 12 | > 1000 | > 1000 | CC(C)C[C@@H](CC(=O)N[C@H]1CCCC[C@@H]1C(=O)NCC(=O)N[C@@H](CCCCNC(=O)c1ccc2c(c1)C1(OC2=O)c2ccc(O)cc2Oc2cc(O)ccc21)C(N)=O)NC(=O)[C@H]1CCCC[C@@H]1NC(=O)[C@H]1CCCC[C@@H]1NC(=O)C[C@@H](NC(=O)[C@H]1CCCC[C@@H]1N)C(C)C [fVL]
